Measurements from patent US10730889B2, “Amido spirocyclic amide and sulfonamide derivatives” (Forma TM, LLC, priority 2012, dated 2020).

These compounds were tested on A2780 cells (assay: In-vitro cell proliferation assay (SRB, 72 hours)). Conditions: A2780 cells, 72 hours, SRB; read-out: Cell Proliferation (IC50).
Assay type: cell-based

IC50 [nM] | SMILES
110 | CC1(C)CC1C(=O)N1CCC2(CC1)CC2CNC(=O)c1cc2cnccc2[nH]1 (centres unmarked) [Example 364, N-[[6-(2,2-dimethylcyclopropanecarbonyl)-6-azaspiro[2.5]octan-2-yl]methyl]-1H-pyrrolo[3,2-c]pyridine-2-carboxamide]

Same assay, conditions: Homo sapiens, A2780, 72 h, A2780 cells, 72 hours, SRB; read-out: Cell Proliferation (IC50)

SMILES | IC50 [nM]
Cc1nccn1CC(=O)N1CCC2(CC1)CC2CNC(=O)c1cc2ccncc2o1 (centres unmarked) [Example 180, N-[[6-[2-(2-methylimidazol-1-yl)acetyl]-6-azaspiro[2.5]octan-2-yl]methyl]furo[2,3-c]pyridine-2-carboxamide] | 2460
COCCC(=O)N1CCC2(CC1)CC2CNC(=O)c1cc2ccncc2o1 (centres unmarked) [Example 153, N-[[6-(3-methoxypropanoyl)-6-azaspiro[2.5]octan-2-yl]methyl]furo[2,3-c]pyridine-2-carboxamide] | 2000
Cc1ncoc1C(=O)N1CCC2(CC1)CC2CNC(=O)N1Cc2ccncc2C1 (centres unmarked) [Example 415, N-[[6-(4-methyloxazole-5-carbonyl)-6-azaspiro[2.5]octan-2-yl]methyl]-1,3-dihydropyrrolo[3,4-c]pyridine-2-carboxamide] | 14.2
CN1CCN(Cc2ccc(C(=O)N3CCC4(CC3)CC4CNC(=O)c3cc4cnccc4[nH]3)cc2)CC1 (centres unmarked) [Example 343, N-[[6-[4-[(4-methylpiperazin-1-yl)methyl]benzoyl]-6-azaspiro[2.5]octan-2-yl]methyl]-1H-pyrrolo[3,2-c]pyridine-2-carboxamide] | 42.5
Cc1nocc1C(=O)N1CCC2(CC1)CC2CNC(=O)c1cc2ccncc2o1 (centres unmarked) [Example 139, N-[[6-(3-methylisoxazole-4-carbonyl)-6-azaspiro[2.5]octan-2-yl]methyl]furo[2,3-c]pyridine-2-carboxamide] | 2000
CN1CCN(Cc2ccc(C(=O)N3CCC4(CC3)CC4CNC(=O)c3cc4ccncc4o3)cc2)CC1 (centres unmarked) [Example 86, N-[[6-[4-[(4-methylpiperazin-1-yl)methyl]benzoyl]-6-azaspiro[2.5]octan-2-yl]methyl]furo[2,3-c]pyridine-2-carboxamide] | 4.53
CC(C)(C)CS(=O)(=O)N1CCC2(CC1)CC2CNC(=O)c1cc2cnccc2[nH]1 (centres unmarked) [Example 379, N-[[6-(2,2-dimethylpropylsulfonyl)-6-azaspiro[2.5]octan-2-yl]methyl]-1H-pyrrolo[3,2-c]pyridine-2-carboxamide] | 2000
O=C(NCC1CC12CCN(C(=O)NCc1cccc(F)c1)CC2)c1cc2ccncc2o1 (centres unmarked) [Example 166, N-[[6-[(3-fluorophenyl)methylcarbamoyl]-6-azaspiro[2.5]octan-2-yl]methyl]furo[2,3-c]pyridine-2-carboxamide] | 2000
CC(=O)Nc1cccc(C(=O)N2CCC3(CC2)CC3CNC(=O)c2cc3ccncc3o2)n1 (centres unmarked) [Example 135, N-[[6-(6-acetamidopyridine-2-carbonyl)-6-azaspiro[2.5]octan-2-yl]methyl]furo[2,3-c]pyridine-2-carboxamide] | 36.4
Cn1cc(C(=O)N2CCC3(CC2)CC3CNC(=O)N2Cc3ccncc3C2)cn1 (centres unmarked) [Example 221, N-[[6-(1-methylpyrazole-4-carbonyl)-6-azaspiro[2.5]octan-2-yl]methyl]-1,3-dihydropyrrolo[3,4-c]pyridine-2-carboxamide] | 25.4
CCn1ncc(C(=O)N2CCC3(CC2)CC3CNC(=O)c2cc3ccncc3o2)c1C (centres unmarked) [Example 124, N-[[6-(1-ethyl-5-methyl-pyrazole-4-carbonyl)-6-azaspiro[2.5]octan-2-yl]methyl]furo[2,3-c]pyridine-2-carboxamide] | 124
CC1(O)CC(CC(=O)N2CCC3(CC2)CC3CNC(=O)c2cc3ccncc3o2)C1 (centres unmarked) [Example 174, N-([6-[2-(3-hydroxy-3methylcyclobutyl)acetyl]-6-azaspiro[2.5]octan-1-yl]methyl)furo[2,3-c]pyridine-2-carboxamide] | 197
O=C(NCC1CC12CCN(C(=O)c1ccc3[nH]nnc3c1)CC2)c1cc2ccncc2o1 (centres unmarked) [Example 238, N-[[6-(1H-benzotriazole-5-carbonyl)-6-azaspiro[2.5]octan-2-yl]methyl]furo[2,3-c]pyridine-2-carboxamide] | 910
CC1(OC(=O)N2CCC3(CC2)CC3CNC(=O)c2cc3ccncc3o2)COC1 (centres unmarked) [Example 417, (3-methyloxetan-3-yl) 2-[(furo[2,3-c]pyridine-2-carbonylamino)methyl]-6-azaspiro[2.5]octane-6-carboxylate] | 830
CC(C)(C)NC(=O)N1CCC2(CC1)CC2CNC(=O)c1cc2cnccc2[nH]1 (centres unmarked) [Example 203, N-[[6-(tert-butylcarbamoyl)-6-azaspiro[2.5]octan-2-yl]methyl]-1H-pyrrolo[3,2-c]pyridine-2-carboxamide] | 2000
O=C(NCC1CC12CCN(C(=O)c1n[nH]c3cc(F)ccc13)CC2)c1cc2ccncc2o1 (centres unmarked) [Example 312, N-[[6-(6-fluoro-1H-indazole-3-carbonyl)-6-azaspiro[2.5]octan-2-yl]methyl]furo[2,3-c]pyridine-2-carboxamide] | 9.61
CS(=O)(=O)c1ccc(C(=O)N2CCC3(CC2)CC3CNC(=O)c2cc3ccncc3o2)cc1 (centres unmarked) [Example 93, N-[[6-(4-methylsulfonylbenzoyl)-6-azaspiro[2.5]octan-2-yl]methyl]furo[2,3-c]pyridine-2-carboxamide] | 878
O=C(NCC1CC12CCN(C(=O)c1ccc(CN3CCOCC3)cc1)CC2)c1cc2ccncc2o1 (centres unmarked) [Example 245, N-[[6-[4-(morpholinomcthyl)benzoyl]-6-azaspiro[2.5]octan-2-yl]methyl]furo[2,3-c]pyridine-2-carboxamide] | 12.6
CC(C)C(=O)N1CC(C(=O)N2CCC3(CC2)CC3CNC(=O)c2cc3ccncc3o2)C1 (centres unmarked) [Example 144, N-[[6-[1-(2-methylpropanoyl)azetidine-3-carbonyl]-6-azaspiro[2.5]octan-2-yl]methyl]furo[2,3-c]pyridine-2-carboxamide] | 375
O=C(NCC1CC12CCN(C(=O)NC1CCCCC1)CC2)c1cc2ccncc2o1 (centres unmarked) [Example 186, N-[[6-(cyclohexylcarbamoyl)-6-azaspiro[2.5]octan-2-yl)methyl]furo[2,3-c]pyridine-2-carboxamide] | 732
CC(C)CC(=O)N1CCC2(CC1)CC2CNC(=O)c1cc2cnccc2[nH]1 (centres unmarked) [Example 46, N-[[6-(3-methylbutanoyl)-6-azaspiro[2.5]octan-2-yl]methyl]-1H-pyrrolo[3,2-c]pyridine-2-carboxamide] | 402
CS(=O)(=O)N1CCC(C(=O)N2CCC3(CC2)CC3CNC(=O)c2cc3ccncc3o2)CC1 (centres unmarked) [Example 74, N-[[6-(1-methylsulfonylpiperidine-4-carbonyl)-6-azaspiro[2.5]octan-2-yl]methyl]furo[2,3-c]pyridine-2-carboxamide] | 169
O=C1COc2ccc(C(=O)N3CCC4(CC3)CC4CNC(=O)c3cc4ccncc4o3)cc2N1 (centres unmarked) [Example 258, N-[[6-(3-oxo-4H-1,4-benzoxazine-6-carbonyl)-6-azaspiro[2.5]octan-2-yl]methyl]furo[2,3-c]pyridine-2-carboxamide] | 20.3

Other lines, results leading:

IC50 [nM] | SMILES
434 | N#Cc1cccc(C(=O)N2CCC3(CC2)CC3CNC(=O)c2cc3ccncc3o2)c1 (centres unmarked) [Example 243, N-[[6-(3-cyanobenzoyl)-6-azaspiro[2.5]octan-2-yl]methyl]furo[2,3-c]pyridine-2-carboxamide]
2000 | CN1CCOC(C(=O)N2CCC3(CC2)CC3CNC(=O)c2cc3ccncc3o2)C1 (centres unmarked) [Example 143, N-[[6-(4-methylmorpholine-2-carbonyl)-6-azaspiro[2.5]octan-2-yl]methyl]furo[2,3-c]pyridine-2-carboxamide]
7.2 | Cn1cc(-c2ccno2)c(C(=O)N2CCC3(CC2)CC3CNC(=O)c2cc3ccncc3o2)n1 (centres unmarked) [Example 132, N-[[6-(4-isoxazol-5-yl-1-methyl-pyrazole-3-carbonyl)-6-azaspiro[2.5]octan-2-yl]methyl]furo[2,3-c]pyridine-2-carboxamide]
414 | CC(=O)N1CCCC1C(=O)N1CCC2(CC1)CC2CNC(=O)c1cc2ccncc2o1 (centres unmarked) [Example 68, N-[[6-(1-acetylpyrrolidine-2-carbonyl)-6-azaspiro[2.5]octan-2-yl]methyl]furo[2,3-c]pyridine-2-carboxamide]
833 | CCn1cc(C(=O)N2CCC3(CC2)CC3CNC(=O)c2cc3ccncc3o2)cn1 (centres unmarked) [Example 126, N-[[6-(1-ethylpyrazole-4-carbonyl)-6-azaspiro[2.5]octan-2-yl]methyl]furo[2,3-c]pyridine-2-carboxamide]
27.8 | O=C(NCC1CC12CCN(C(=O)NC13CC4CC(CC(C4)C1)C3)CC2)c1cc2ccncc2o1 (centres unmarked) [Example 169, N-[[6-(1-adamantylcarbamoyl)-6-azaspiro[2.5]octan-2-yl]methyl]furo[2,3-c]pyridine-2-carboxamide]
232 | O=C(NCC1CC12CCN(C(=O)Cc1cccnc1)CC2)c1cc2ccncc2o1 (centres unmarked) [Example 39, N-[[6-[2-(3-pyridyl)acetyl]-6-azaspiro[2.5]octan-2-yl]methyl]furo[2,3-c]pyndine-2-carboxamide]
55 | CC(C)Cc1cc(C(=O)N2CCC3(CC2)CC3CNC(=O)c2cc3ccncc3o2)[nH]n1 (centres unmarked) [Example 319, N-[[6-(3-isobutyl-1H-pyrazole-5-carbonyl)-6-azaspiro[2.5]octan-2-yl]methyl]furo[2,3-c]pyridine-2-carboxamide]
2000 | CC(C)(C)OC(=O)N1CCC2(CC1)CC(CNC(=O)c1cc3ccncc3o1)C2 [Example 194, tert-butyl 2-[(furo[2,3-c]pyridine-2-carbonylamino)methyl]-7-azaspiro[3.5]nonane-7-carboxylate]
228 | CS(=O)(=O)N1CCCC1C(=O)N1CCC2(CC1)CC2CNC(=O)c1cc2ccncc2o1 (centres unmarked) [Example 76, N-[[6-(1-methylsulfonylpyrrolidine-2-carbonyl)-6-azaspiro[2.5]octan-2-yl]methyl]furo[2,3-c]pyridine-2-carboxamide]

Same assay, conditions: Homo sapiens, A2780, 72 h, read-out: Cell Proliferation (IC50)

IC50 [nM] | SMILES
4.74 | CC1(OC(=O)N2CCC3(CC2)CC3CNC(=O)N2Cc3ccncc3C2)CCC1 (centres unmarked) [Example 228, (1-methylcyclobutyl) 2-[(1,3-dihydropyrrolo[3,4-c]pyridine-2-carbonylamino)methyl]-6-azaspiro[2.5]octane-6-carboxylate]
